The source of these data is patent US20020164581A1 (priority 2001, published 2002).

“And” between values parts separate entries of the source, which are not always exact repeats. Identical values can stand only once. Like-named read-outs stand apart in the source and are kept apart here.

The test system of one series is female and male bAECs. The format is cell-based, bovine. The conditions noted are these: for mean DCFH fluorescence: separate set of donors, 45-minute paraquat exposure. As for the experimental part:
For flow cytometric analysis (after E2 treatment), female and male bAECs were trypsinized, rinsed, and resuspended in PBS containing 2% BSA at a density of 5×10^5 cells/ml. The cells were loaded with dichlorofluorescin diacetate (Molecular Probes, Eugene, Oreg.) (dissolved in DMSO) at 5 μg/ml for 15 minutes followed by paraquat insult (1 mM) at room temperature in the dark. At the designated times, aliquots were withdrawn, placed on ice, and the fluorescence of oxidized DCFH was analyzed by a FACSCalibur™ flow cytometer (Becton-Dickinson, San Jose, Calif.) equipped with an argon laser. A collection filter for the green emission of oxidized DCFH (530/30 nm) was used. Fluorescence signal was collected in log mode and analyzed using Cellquest™ software (Becton-Dickinson).
SOD can dismutate the superoxide radical to hydrogen peroxide, which is subsequently detoxified by CAT or GPX. […] This theory was tested by comparing the level of ROS in female and male bAECs during subsequent oxidant exposure. Following E2 treatment for 24 hours, cells were loaded with dichlorofluorescein diacetate, which penetrates their plasma membranes and is converted to 2′,7′-dichlorofluorescein (DCFH) by intracellular esterases. This nonfluorescent compound, once oxidized by ROS such as hydrogen peroxide, turns to a highly fluorescent derivative.

The test system of series [1] is bovine aortic endothelial cells (bAECs). As to the method: Prior to E2 pretreatment, cells were grown in phenol red-free DMEM supplemented with 10% dextran/charcoal-stripped FBS for at least 1 passage (3-4 days). Phenol red-free Dulbecco's modified medium was used to avoid potential estrogenic interference. Serum steroid deprivation was conducted according to the conditions described by Yeh et al. (Proc. Natl. Acad. Sci. USA 95:5527-5532, 1998). The E2 level in the stripped serum was assayed using an [^125I] 17β-estradiol radioimmunoassay kit (TKE21, Diagnostic Products Corporation, Los Angeles, Calif.). […] The cells grown in E2-free environments were plated onto Falcon 24-well Primariae™ plates at a density of 5×10^4 cells/well. E2 in dimethylsulfoxide (DMSO) was added to each well at final concentrations ranging from 1 nM to 10 μM 3 hours after plating, and the cells were then incubated for 24 hours (a duration commonly used for the studies of the genomic effects of E2) at 37° C. Control cells were treated with a corresponding amount of DMSO (a final concentration 0.05%).
To study the difference between male and female cells in their response to E2, bAECs from male and female animals were treated with various concentrations of E2 for 24 hours and then challenged with paraquat (1,1′-dimethyl-4,4′-bipyridinium dichloride, methyl viologen). Paraquat was used because it generates the superoxide anion O2 in living cells. […] Accordingly, E2 ranging in concentration from 1 nM to 10 μM was used in these studies.

For another series, the system named is cardiomyocytes. The conditions noted are these: cited from earlier work.
Series [2] deals with glutathione reductase (GR). Description: GR activity in cell lysate (NADPH oxidation). The format is cell-based, bovine. As to the method: (§1) Cells pretreated with different concentrations of E2 for 24 hours were harvested in a solution containing 50 mM Tris-HCl (pH 7.4), 1 mM EDTA, 2 μg/ml pepstatin A, 10 μg/ml benzamidine, and 10 μg/ml trypsin inhibitor. The cells were then lysed on ice by sonication at a setting of 50 mW, with 3×15 set cycles using a Cole-Parmer Ultrasonic Homogenizer (Chicago, Ill.). Protein concentrations in the samples were determined by the Bradford method with bovine serum albumin as a standard (Bradford, Anal. Biochem. 72:248-254, 1976).
GR activity was determined by a modified method of Carlberg and Mannervik (Methods Enzymol. 11 3:484-490, 1985). One unit of GR activity is defined as the amount of protein that oxidizes 1 nmole of β-NADPH per minute. Briefly, 50 μl of 2 mM β-NADPH in 10 mM Tris buffer (pH 7.0) was added to a cuvette containing 50 μl of 20 mM glutathione (oxidized ofrm, GSSG) in phosphate buffer (0.1 M NaH2PO4, 0.1 M Na2HPO4, 0.1 mM EDTA, pH 7.0) and 800 μl of phosphate buffer. Following the addition of cell homogenate (about 100 μg protein/100 μl) the final mixture was measured at 340 nm for 3 minutes. The molar extinction coefficient of 6.22 mM/cm was used to determine the activity of […].

A further series has as its system catalase (CAT). Description: CAT activity in cell lysate (H2O2 degradation). The format is cell-based, bovine. As to the method:
as §1
CAT activity was determined by the method of Aebi (Methods Enzymol. 105:121,-126, 1984). One unit of CAT activity is defined as the amount of protein that degrades 1 μmole of H2O2 per minute. Initially, 10 μl of absolute ethanol was mixed with 100 μl of cell homogenates and pre-incubated at 4° C. for 30 minutes. Following the addition of 10 μl Triton X-100 (reduced form), a 100 μl aliquot (about 100 μg of protein) of the resultant mixture was next added to 500 μl of hydrogen peroxide (66 mM) and 400 μl of phosphate buffer (0.1 M NaH2PO4, 0.1 M Na2HPO4, 0.1 mM EDTA, pH 7.0). The absorbency of the mixture was monitored for one minute at 240 nm spectrophotometrically. The molar extinction coefficient of 43.6 M/cm was used to determine the catalase activity.

[3] abbreviates: 1 nM E2 pretreatment (Example 8).
Setting [4] is: female bAECs, 24 h 1 nM E2 (Example 12).

On to `C[C@]12CC[C@@H]3c4ccc(O)cc4CC[C@H]3[C@@H]1CC[C@@H]2O` [E2, 17β-estradiol], for which, in the series on female and male bAECs, the “mean fluorescence intensity of oxidized DCFH” value was 795 and 1323. Also, the “basal level of DCFH oxidation, female vs male” value in the series on female and male bAECs (E2-pretreated cells, before paraquat) was “similar”. Moreover, the “mean DCFH fluorescence” value worked out at 1002 in the series on female and male bAECs (female bAECs); 1581 with female and male bAECs (male bAECs). In series [1] (both, bovine, 24 h), the “E2 concentration that suppressed growth” value was ≥ 100 µM. Moreover, the “E2 concentration that significantly inhibited endothelial cell growth” value in series [1] (female, bovine, 24 h) was ≥ 100 µM. For the same compound, the “cell count without subsequent paraquat exposure” value in series [1] (groups pretreated with various doses of E2, comparable among groups, average) was 3.1×10^5 per well. Further, the “effect on high K+-induced Ca++ loading or hypercontracture” value in the series on cardiomyocytes is “prevent high K+-induced intracellular Ca++ loading or hypercontracture”. Moreover, in series [2] (setting [3]), the “GR activity elevation relative to untreated cells” value is ~3 fold. The GR activity increase in series [2] (setting [4]) was ~2 fold. Moreover, the “CAT activity elevation relative to untreated cells” value in the series with catalase (CAT) (setting [3]) is recorded as ~2 fold. Also, the CAT activity increase in the series with catalase (CAT) (setting [4]) is on record as ~2 fold.
